# Results taken from PubChem BioAssay (NCI).
#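 Exposure lasted 48 hours, with cells grown in 96-well plates and compounds tested at five concentrations. The concentration for 50% growth inhibition is given as GI50. The concentration for full growth arrest is given as TGI.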
# Key:
# Experiment in all cases: inhibition of tumour cell growth, NCI panel, 48 h
# [1] = test system: SR leukemia
# [2] = test system: HOP-62 NSCLC
# [3] = test system: MDA-MB-231 breast
# [4] = test system: M14 melanoma
# [5] = test system: HCT-15 colon
# [6] = test system: SW-620 colon
# [7] = test system: NCI-H460 lung
# [8] = test system: MDA-N
# [9] = test system: HT29 colon
# [10] = test system: PC-3 prostate
Structure (SMILES),TGI [1] [µM],TGI [2] [µM],TGI [3] [µM],TGI [4] [µM],TGI [5] [µM],TGI [6] [µM],TGI [7] [µM],TGI [8] [µM],TGI [9] [µM],TGI [10] [µM],GI50 [2] [µM],GI50 [4] [µM],GI50 [6] [µM],GI50 [7] [µM],GI50 [9] [µM],GI50 [1] [µM],GI50 [3] [µM],GI50 [5] [µM],GI50 [10] [µM]
Cc1ccc(OCC2OC(n3cnc4nc(N)nc(Cl)c43)CC2Oc2ccc(C)cc2)cc1 (configuration not stated),> 100,52.6,> 100,41.2,59.3,> 100,97,39.5,71.1,44.6,–,–,–,–,–,–,–,–,–
O=S(=O)(c1ccc(NC2=NC(c3ccc(O)cc3)(c3ccccc3O)c3ccccc32)cc1)c1ccc(NC2=NC(c3ccc(O)cc3)(c3ccccc3O)c3ccccc32)cc1 (configuration not stated),> 49.6,> 100,> 44.6,> 29.2,> 81,> 100,47.5,> 23.1,> 52.7,> 58.7,–,–,–,–,–,–,–,–,–
N#CC1(C#N)NC(c2cccs2)C(C#N)(C#N)NC1c1cccs1 (configuration not stated),77.3,> 100,> 100,> 100,> 100,> 100,> 100,–,> 100,> 100,–,–,–,–,–,–,–,–,–
Cc1cc(C)nc(SC2=C(Nc3ccc(C)c(Cl)c3)C(=O)N(Cc3ccccc3)C2=O)n1,–,> 160,–,> 160,–,> 160,> 160,–,> 160,–,1.35,> 160,> 160,> 160,> 160,–,–,–,–
Cc1cccc(Nc2nn3c(=O)c4c5c(sc4nc3s2)CCCC5)c1,> 100,> 100,> 100,> 100,> 100,> 100,> 100,> 100,> 100,> 100,–,–,–,–,–,–,–,–,–
C[n+]1cccc2c(=O)c3ccccc3oc21,> 100,> 100,> 100,> 100,> 100,> 100,> 100,> 100,> 100,> 100,–,–,–,–,–,–,–,–,–
O=C1C[C@@H](C(=O)OCc2ccccc2)NC(=O)C[C@@H](C(=O)OCc2ccccc2)NC(=O)C[C@@H](C(=O)OCc2ccccc2)N1,20.7,> 88.5,70.9,> 100,> 100,> 100,> 100,> 100,> 100,> 100,–,–,–,–,–,–,–,–,–
O=c1cc(N2CCCC2)[nH]c(=O)n1Cc1ccccc1,> 100,> 100,> 100,> 100,> 100,> 100,> 100,–,> 100,> 100,–,–,–,–,–,–,–,–,–
COc1ccc(CC(N)c2ccc(OC)cc2)cc1 (configuration not stated),–,> 100,> 100,> 100,> 100,> 100,> 100,> 100,> 100,> 100,–,–,–,–,–,–,–,–,–
O=C(N/N=C/C=C/c1ccc([N+](=O)[O-])o1)c1cc2ccccc2cc1O,7.69,10.6,8.65,2.15,4.23,3.05,6.9,–,7.05,9.97,3.27,0.758,1.05,1.64,2.15,0.308,2.17,0.465,2.02
CCOc1ccc(N/C(=C(/C(Cl)=C(/Cl)N(CC)CC)[N+](=O)[O-])n2nnc3ccccc32)cc1,–,> 100,25.2,79,38.4,27.3,> 100,70.4,63.8,41.9,–,–,–,–,–,–,–,–,–
COc1ccc(N2C(=O)CC(=O)N(C(=O)COc3ccc(OCC(=O)N4C(=O)CC(=O)N(c5ccc(OC)cc5)C4=S)cc3)C2=S)cc1,–,–,> 100,> 100,> 100,> 100,> 100,> 100,> 100,> 100,–,–,–,–,–,–,–,–,–
COc1cc([C@@H]2c3cc4c(cc3[C@@H](c3c(O)cc(O)c5c3O[C@H](c3ccc(O)c(O)c3)[C@@H](O)C5)[C@H]3COC(=O)[C@H]23)OCO4)cc(OC)c1OC,–,3.76,3.28,> 100,> 100,> 100,3.72,–,63.9,3.38,–,–,–,–,–,–,–,–,–
Cc1cc(S(=O)(=O)N/C(=C(\C#N)C(=O)c2ccc(Cl)cc2)[n+]2ccc(N(C)C)cc2)c([S-])cc1Cl,> 100,> 100,> 100,> 100,> 100,–,> 100,> 100,95.1,> 100,–,–,–,–,–,–,–,–,–
COc1cc2ccc(=O)oc2cc1O,–,411,–,–,> 625,> 625,139,–,> 625,–,–,–,–,–,–,–,–,–,–
OCC(O)C(O)C(O)C(O)c1nc2ccc(Cl)cc2[nH]1 (configuration not stated),–,> 100,> 100,> 100,> 100,> 100,> 100,> 100,> 100,> 100,–,–,–,–,–,–,–,–,–
CC(C)CNc1nc2ncnc(N)c2[nH]1,–,> 100,> 100,> 100,> 100,> 100,> 100,> 100,> 100,> 100,–,–,–,–,–,–,–,–,–
C/C=C/c1cc(=O)c([C@@H]2OC(=O)c3cc(OC)cc(OC)c32)co1,> 100,> 100,–,> 100,–,> 100,> 100,–,> 100,–,–,–,–,–,–,–,–,–,–
Cc1cc(F)ccc1S(=O)(=O)Nc1cc(-c2c(O)ccc3ccccc23)c(O)c2ccccc12,19.3,18.7,13.8,5.4,11.4,11.8,11.4,–,21.1,5.12,3.27,2.06,2.48,2.92,4.09,3.21,2.64,2.68,1.37
Cc1ccc2c(=O)cc(-c3ccc(Cl)s3)[nH]c2n1,> 76.2,> 100,> 100,> 100,> 100,> 100,> 100,–,> 52.4,> 100,–,–,–,–,–,–,–,–,–
CCCCOC(=O)C(NC(C(=O)OCCCC)c1cc(C(C)(C)C)c(O)c(C(C)(C)C)c1)c1cc(C(C)(C)C)c(O)c(C(C)(C)C)c1 (configuration not stated),–,> 100,> 100,> 100,> 100,> 100,–,> 100,> 100,> 100,–,–,–,–,–,–,–,–,–
ClCCCc1ccccc1C1=NCCc2ccccc21,–,> 100,> 100,> 100,> 100,> 100,> 100,–,> 100,> 100,–,–,–,–,–,–,–,–,–
CCNCCCn1c2c(c3ccc(Cl)cc3c1=O)C(=O)c1cc(OC)cnc1-2,–,1.43,3.23,2.06,2.5,1.76,–,–,2.03,–,0.122,0.518,0.0316,–,0.327,–,1.5,1.02,–

Structure (SMILES),TGI [1] [µM],TGI [2] [µM],TGI [3] [µM],TGI [4] [µM],TGI [5] [µM],TGI [6] [µM],TGI [7] [µM],TGI [8] [µM],TGI [9] [µM],TGI [10] [µM],GI50 [2] [µM],GI50 [4] [µM],GI50 [6] [µM],GI50 [7] [µM],GI50 [9] [µM],GI50 [1] [µM],GI50 [3] [µM],GI50 [5] [µM],GI50 [10] [µM]
O=C1CCCCC/C1=C\c1ccc([N+](=O)[O-])cc1,92.9,> 100,37.9,> 100,–,> 100,39.4,> 100,77.7,> 100,–,–,–,–,–,–,–,–,–
COc1c(O)c(C=O)c2c(O)c(-c3c(C)cc4c(C(C)C)c(OC)c(O)c(C=O)c4c3O)c(C)cc2c1C(C)C,22.7,9.18,–,22.2,14,17.7,16.1,–,15.3,–,–,–,–,–,–,–,–,–,–
NC(=O)NNc1nc(-c2ccccc2)cs1,> 100,> 100,> 100,> 100,> 100,> 100,> 100,–,> 100,> 100,–,–,–,–,–,–,–,–,–
CCOP(=O)(/C=C\n1cc(C)c(=O)[nH]c1=O)OCC,–,> 100,> 100,> 100,> 100,> 100,> 100,> 100,> 100,> 100,–,–,–,–,–,–,–,–,–
OCCO/N=C1\C(c2c(O)[nH]c3ccccc23)=Nc2ccccc21,> 100,> 100,–,> 100,> 100,> 100,> 100,> 100,> 100,> 100,–,–,–,–,–,–,–,–,–
Cc1ccc(S(=O)(=O)n2c3ccc(Br)cc3c3nc4ccccc4nc32)cc1,–,> 100,> 100,> 100,> 100,> 100,> 100,> 100,> 100,> 100,–,–,–,–,–,–,–,–,–
C[C@H](NC(=O)C(Cc1ccccc1)(Cc1ccc(O)cn1)NC(=O)c1ccccc1)c1ccccc1 (some centres not stated),–,33.8,29.4,29.4,38.3,59.3,–,30.7,33.4,28.7,–,–,–,–,–,–,–,–,–
O=C1CCCCCCCCCCC1CN1CCCC1 (configuration not stated),–,34.7,> 100,47.2,> 100,> 100,> 100,> 100,77.1,> 100,–,–,–,–,–,–,–,–,–
COC(=O)C1CCC(=S)N1C(=O)c1ccccc1 (configuration not stated),–,> 100,> 100,> 100,> 100,–,> 100,> 100,> 100,> 100,–,–,–,–,–,–,–,–,–
Cc1ccc(/C(O)=C/c2nc3ccccc3sc2=O)c(C)c1,75.8,97.3,> 100,> 100,> 100,–,> 100,> 100,> 100,> 100,–,–,–,–,–,–,–,–,–
CC(=O)Oc1cc2c(cc1OC(C)=O)OCC(c1ccc(C)cc1)C2 (configuration not stated),–,44.4,–,–,40.7,47.3,39.1,–,73.6,–,–,–,–,–,–,–,–,–,–
O=S(Nc1ccccc1)c1ccc(N2CCOCC2)cc1 (configuration not stated),> 100,> 100,> 100,> 100,> 100,> 100,> 100,–,> 100,–,–,–,–,–,–,–,–,–,–
COc1ccc(C2=Nc3cc(C)c(C)cc3NC(c3ccccc3)C2)cc1 (configuration not stated),54.5,> 100,> 100,> 100,> 100,> 100,> 100,–,> 100,> 100,–,–,–,–,–,–,–,–,–
COC(C(=O)NN)c1ccccc1 (configuration not stated),> 100,> 100,–,> 100,> 100,> 100,> 100,> 100,> 100,> 100,–,–,–,–,–,–,–,–,–
C=C/C(C)=C\CC1[C@](C)(O)CC[C@H]2C(C)(C)C(=O)CC[C@]12C (some centres not stated),66.5,–,> 100,> 100,> 100,> 100,> 100,> 100,> 100,> 100,–,–,–,–,–,–,–,–,–
CN(C)C(=O)OC1C(=O)N(C)c2ccc(Cl)cc2C2(c3ccccc3)N1C2(Cl)Cl (configuration not stated),> 100,> 100,–,> 100,> 100,> 100,> 100,–,> 100,–,–,–,–,–,–,–,–,–,–
O=c1[nH]nc(-c2ccccc2)n1/N=C\c1ccccc1,> 100,> 100,> 100,–,> 100,> 100,> 100,> 100,> 100,> 100,–,–,–,–,–,–,–,–,–
CC(C)=NN/C(=N\S(=O)(=O)c1ccc(Oc2cccc(Cl)c2C#N)cc1)Nc1ccc(Cl)cc1,–,> 100,> 100,> 100,> 100,> 100,> 100,> 100,> 100,> 100,–,–,–,–,–,–,–,–,–
OC1(c2ccccc2)CCN(Cc2c[nH]c3ccccc23)CC1,–,> 100,> 100,35,> 100,> 100,> 100,> 100,> 100,> 100,–,–,–,–,–,–,–,–,–
CC(=O)N1CC(C)(C)c2c(C)c(O)c(C)c(C)c21,–,> 100,> 100,> 100,> 100,> 100,> 100,> 100,> 100,> 100,–,–,–,–,–,–,–,–,–
NC(=O)c1cccc([N+](=O)[O-])c1,–,> 100,–,> 100,> 100,> 100,> 100,–,> 100,–,–,–,–,–,–,–,–,–,–
CN(C)c1nc(N)nc(CS)n1,> 100,> 100,> 100,> 100,> 100,> 100,> 100,–,> 100,> 100,–,–,–,–,–,–,–,–,–
